Measurements taken from US5486516A, “Furopyrimidine derivatives” (DowElanco, priority 1993, dated 1996).

Experiments:
[1] = test system: melon aphids (Aphis gossvpii Glover); assay: Mite/insect screen, melon aphids; assay type: in vivo; settings: sprayed leaves; for mortality at 200 ppm / mortality at 400 ppm: Aphis, read-out: MA results (percent mortality); for mortality at 200 ppm: rate 200 ppm
Procedure, shortened: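 Aphids established on squash cotyledons were sprayed to runoff with compound in acetone/alcohol with sulfonate/nonionic emulsifiers, diluted in water to test concentrations. Leaves dried 1 h. Percent mortality scored after standard exposure periods.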

[2] = test system: Pyricularia oryzae (rice blast); assay: whole plant or invertebrate; assay type: in vivo; settings: foliar, read-out: RICE BLAST control rating
[3] = test system: Pseudoperonospora cubensis (downy mildew); assay: Plant pathology screen (Test 1), downy mildew on squash; settings: foliar, read-out: DOWN MDEW control rating
[4] = test system: Botrytis cinerea (gray mold); assay: Plant pathology screen (Test 1), gray mold on grape berries; settings: read-out: GRAY MOLD control rating
Description: (§1) This screen was used to evaluate the efficacy of the present compounds against a variety of different organisms that cause plant diseases.
(§2) The test compounds were formulated for application by dissolving 50 mg of the compound into 1.25 ml of solvent. The solvent was prepared by mixing 50 ml of "Tween 20" (polyoxyethylene (20) sorbitan monolaurate emulsifier) with 475 ml of acetone and 475 ml of ethanol. The solvent/compound solution was diluted to 125 ml with deionized water. The resulting formulation contains 400 ppm test chemical. Lower concentrations were obtained by serial dilution with the solvent-surfactant mixture.
The formulated test compounds were applied by foliar spray. The following plant pathogens and their corresponding plants were employed.
(§3) The formulated technical compounds were sprayed on all foliar surfaces of the host plants (or cut berry) to past run-off. Single pots of each host plant were placed on raised, revolving pedestals in a fume hood. Test solutions were sprayed on all foliar surfaces. All treatments were allowed to dry and the plants were inoculated with the appropriate pathogens within 2-4 hours.
(§4) The effectiveness of test compounds in controlling disease was rated using the following scale.

[5] = test system: Puccinia recondita tritici (leaf rust); assay: Plant pathology screen (Test 1), leaf rust on wheat; settings: in Triticum aestivum, foliar, read-out: LEAF RUST control rating
Description: as §1, §2
(§5) The formulated test compounds were applied by foliar spray.
as §3, §4

[6] = test system: Twospotted spider mites (Tetranychus urticae Koch); assay: Mite/insect screen, twospotted spider mites; assay type: in vivo; settings: Tetranychus urticae, sprayed leaves, read-out: SM results (percent mortality); for mortality at 200 ppm: rate 200 ppm; for mortality at 400 ppm: rate 400 ppm
Procedure, shortened: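 Squash cotyledons infested with mites were sprayed to runoff at 10 psi with compound in acetone/alcohol plus emulsifiers, diluted in water to the stated concentrations. Percent mortality and phytotoxicity were scored after standard exposure periods.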

[7] = test system: Southern corn rootworm (Diabrotica undecimpuctata howardi Barber); assay: Mite/insect screen, corn rootworm; assay type: in vivo; settings: soil; for mortality at 12 ppm / mortality at 24 ppm: Diabrotica, read-out: CRW results (percent mortality); for mortality at 12 ppm: CRW rate 12.00 ppm
Procedure, shortened: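 Compound in acetone/alcohol with emulsifiers, diluted with water; 1 mL applied to 15 g dry sandy soil holding a presoaked corn seed. After 6–12 h drying, five 2-3 instar larvae added, held at 23° C; percent mortality and phytotoxicity scored after standard exposure periods.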

[8] = test system: Erysiphe graminis tritici (powdery mildew); assay: Plant pathology screen (Test 1), powdery mildew on wheat; settings: Blumeria graminis, in Triticum aestivum, foliar, read-out: POWD MDEW control rating
Description: as §2, §5, §3, §4

[9] = test system: southern armyworm (Spodopetra eridania Cramer); assay: Mite/insect screen, Southern armyworm; assay type: in vivo; settings: sprayed leaves; for mortality at 200 ppm / mortality at 400 ppm: Spodoptera eridania, read-out: SAW results (percent mortality); for mortality at 200 ppm: rate 200 ppm
Procedure, shortened: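 Compounds in acetone/alcohol with Toximul emulsifiers, diluted in water, sprayed to runoff on squash leaves at 10 psi and dried 1 h. Excised treated leaves fed to southern armyworm larvae in Petri dishes; percent mortality scored after standard exposure.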

Compound	mortality at 200 ppm [1] [%]	mortality at 400 ppm ([1]; rate 400 ppm) [%]	pest or weed control at 400 µg/mL [2] [%]	pest or weed control at 400 µg/mL [3] [%]	pest or weed control at 400 µg/mL [4] [%]	pest or weed control at 400 µg/mL [5] [%]	mortality at 200 ppm [6] [%]	mortality at 400 ppm [6] [%]	mortality at 12 ppm [7] [%]	mortality at 24 ppm ([7]; CRW rate 24.00 ppm) [%]	pest or weed control at 400 µg/mL [8] [%]	mortality at 200 ppm [9] [%]	mortality at 400 ppm ([9]; rate 400 ppm) [%]	MA results (percent mortality) ([1]; rate 400 ppm) [%]	CRW results (percent mortality) ([7]; CRW rate 24.00 ppm) [%]	SAW results (percent mortality) ([9]; rate 400 ppm) [%]
Cc1oc2ncnc(Sc3ccc(F)cc3)c2c1C [Example 56, 5,6-dimethyl-4-[(4-fluorophenyl)thio]furo[2,3-d]pyrimidine]	0	0	20 to 89	0 to 19	0 to 19	20 to 89	0	0	0	0	20 to 89	0	0			
CCCCCCOc1ccc(CC(CNc2ncnc3oc(C)c(C)c23)c2cccc3ccccc23)cc1 (stereo not shown) [Example 71, 5,6-dimethyl-N-[3-[4-(n-hexyloxy)phenyl]-2-(1-naphthyl)propyl]furo[2,3-d]pyrimidin-4-amine]		0	0 to 19	0 to 19	0 to 19	0 to 19		0		0	0 to 19		0			
Cc1oc2ncnc(OCCc3ccc(C(C)(C)C)cc3)c2c1C [Example 50, 4-[2-[4-(t-butyl)phenyl]ethoxy]-5,6-dimethylfuro[2,3-d]pyrimidine]	0	100	20 to 89	20 to 89	0 to 19	20 to 89	0	100	0	0	20 to 89	0	0			
Cc1oc2ncnc(Oc3ccc(F)cc3)c2c1C [Example 49, 5,6-dimethyl-4-(4-fluorophenoxy)furo[2,3-d]pyrimidine]	0	0	0 to 19	0 to 19	0 to 19	90 to 100	0	0	0	0	90 to 100	80	0			
Cc1oc2ncnc(NCCc3ccc(C(C)(C)C)cc3)c2c1C [Example 20, N-[2-[4-(t-butyl)phenyl]ethyl]-5,6-dimethylfuro[2,3-d]pyrimidin-4-amine]	0	0	20 to 89	90 to 100	0 to 19	90 to 100	0		0	0	0 to 19	0	0	0	0	0
Cc1ccc(Oc2ncnc3oc(C)c(C)c23)cc1 [Example 62, 5,6-dimethyl-4-(4-methylphenoxy)furo[2,3-d]pyrimidine]	0	0	0 to 19	0 to 19	0 to 19	0 to 19	0	0	0	0	90 to 100	0	0			
